Results as given in US7901893B2, “NPC1L1 (NPC3) and methods of identifying ligands thereof” (Merck Sharp & Dohme Corp., priority 2004, dated 2011).
pIC50, pKd, pKi: −log10 of the molar value. Read-outs that look alike come from different tables or passages of the source. Values belong to the molecule of their own block, whether it stands above or below them.

Key:
[1] = molecular target: T1, rhesus brush border membrane vesicles (Macaca mulatta, UniProt A0MJA5); assay: Binding assay with rhesus brush border membrane vesicles; conditions: for Ki: Monkey BBM Ki (nM), 0.03% sodium taurocholate and 0.05% digitonin, 1.25 mg protein/ml, 20 nM 1
T1 sequence (A0MJA5 1-1332): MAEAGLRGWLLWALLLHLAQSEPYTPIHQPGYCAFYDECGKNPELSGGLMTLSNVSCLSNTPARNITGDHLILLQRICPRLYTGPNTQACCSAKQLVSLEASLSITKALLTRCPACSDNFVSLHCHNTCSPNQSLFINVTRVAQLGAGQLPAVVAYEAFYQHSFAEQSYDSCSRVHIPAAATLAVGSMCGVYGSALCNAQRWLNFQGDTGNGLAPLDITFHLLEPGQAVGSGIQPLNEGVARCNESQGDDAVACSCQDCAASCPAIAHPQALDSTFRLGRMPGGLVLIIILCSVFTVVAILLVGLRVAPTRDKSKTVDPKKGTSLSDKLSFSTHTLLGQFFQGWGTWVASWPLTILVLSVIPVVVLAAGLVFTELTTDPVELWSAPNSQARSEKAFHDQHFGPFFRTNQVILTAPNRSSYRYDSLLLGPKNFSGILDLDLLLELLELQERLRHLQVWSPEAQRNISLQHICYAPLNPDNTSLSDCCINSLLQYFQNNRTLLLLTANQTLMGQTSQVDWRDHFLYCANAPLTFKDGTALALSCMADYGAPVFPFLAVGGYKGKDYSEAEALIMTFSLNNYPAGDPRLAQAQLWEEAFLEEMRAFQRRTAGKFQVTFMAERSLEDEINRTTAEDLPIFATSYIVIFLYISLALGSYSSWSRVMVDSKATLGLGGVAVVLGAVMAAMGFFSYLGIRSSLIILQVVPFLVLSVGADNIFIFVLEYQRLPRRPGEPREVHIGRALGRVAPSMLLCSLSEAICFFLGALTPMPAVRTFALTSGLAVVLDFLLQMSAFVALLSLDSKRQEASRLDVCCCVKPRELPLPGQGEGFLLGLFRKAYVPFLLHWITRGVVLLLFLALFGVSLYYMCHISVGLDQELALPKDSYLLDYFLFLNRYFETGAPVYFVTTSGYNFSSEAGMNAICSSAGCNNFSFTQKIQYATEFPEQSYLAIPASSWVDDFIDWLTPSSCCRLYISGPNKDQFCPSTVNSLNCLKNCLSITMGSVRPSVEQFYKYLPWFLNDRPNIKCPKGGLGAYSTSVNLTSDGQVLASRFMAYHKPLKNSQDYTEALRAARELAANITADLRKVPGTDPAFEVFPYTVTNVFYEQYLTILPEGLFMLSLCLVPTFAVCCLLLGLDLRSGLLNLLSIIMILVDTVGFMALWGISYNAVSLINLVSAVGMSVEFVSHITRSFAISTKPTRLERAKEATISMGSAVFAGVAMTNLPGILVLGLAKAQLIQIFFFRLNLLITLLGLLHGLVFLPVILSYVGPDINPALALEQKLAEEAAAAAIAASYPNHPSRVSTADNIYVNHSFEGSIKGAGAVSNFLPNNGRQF
Procedure: The intestines from freshly sacrificed animals were cut into segments, perfused with ice-cold saline buffer (Buffer A: 26 mM NaHCO3, 0.96 mM NaH2PO4, 5 mM HEPES, 5.5 mM glucose, 117 mM NaCl, 5.4 mM KCl, pH=7.4), placed on cold glass plates, opened longitudinally, and the mucosa scraped with glass microscope slips. This mucosa could be used fresh or frozen with identical results. To prepare the membranes, the mucosal scrapings were resuspended in 20 volumes of cold buffer consisting of 300 mM D-mannitol, 5 mM EGTA, 12 mM Tris, pH 7.4 with HCl, and containing 0.1 mM PMSF and a 1% dilution of a protease inhibitor cocktail (set 1, Calbiochem). They were homogenized using a Polytron at medium speed on ice until inspection with a microscope indicated complete cell lysis. Then, solid MgCl2 was added slowly with stirring to a final concentration of 10 mM, and the solution was kept stirring on ice for 15 min. Cellular debris was removed by centrifugation for 15 min at 3,000 g, and the membranes were recovered by centrifugation for 60 min at 48,000 g. The membranes were further rinsed by re-suspension in a buffer containing 50 mM D-mannitol, 5 mM EGTA, and 2 mM Tris at pH 7.40, and centrifugation for 60 min at 48,000 g. The final pellet was resuspended in 120 mM NaCl and 20 mM Tris at pH 7.40 to a concentration of ˜10-20 mg protein/ml, aliquoted, frozen in liquid nitrogen, and stored at −80 C. The activity was stable indefinitely and could be freeze-thawed with minimal loss of activity.
Binding assay. Assays were conducted in 12×75 mm glass test tubes and total volume 20-100 ul. In general, frozen membranes were diluted in buffer A or buffer A containing 0.03% taurocholate and 0.05% digitonin to a final concentration of 0.02 to 5 mg/ml. […] Competing ligands were likewise added as DMSO solutions to give a total 2-10% organic solvent content. […] At least 2 components of buffer A, the bicarbonate and phosphate salts, were later found to be inconsequential and were routinely omitted.
Bound ligand was quantified by single-tube vacuum filtration using GF/C glass fiber filters. […] Filtration was accomplished by adding 2.5 ml of ice cold buffer (120 mM NaCl, 0.1% sodium cholate, and 20 mM MES at pH 6.70) to the assay tube, pouring the mixture through the filter, and then rinsing the tube and filter twice more with another 2×2.5 ml buffer. The filters were counted in 7 ml vials using Packard DM liquid scintillation fluid.
Data analysis. Data from saturation experiments were subjected to a Scatchard analysis, and linear regression was performed to yield the equilibrium dissociation constant (Kd) and maximum receptor concentration (Bmax). […] Data from competition experiments were analyzed and IC50 values determined from Hill plots of the binding data.

[2] = molecular target: T2, rat brush border membrane vesicles (Rattus norvegicus, UniProt Q6T3U3); assay: Binding assay with rat brush border membrane vesicles; conditions: for IC50: rat brush border membrane vesicles, read-out: RAT IC50 (nM), inhibition of ^3H-EZE-gluc binding
T2 construct: from tissue; host or cells: rat (male Sprague-Dawley) small-intestinal mucosa, brush border membrane vesicles
Text: (§1) Glass fiber filters (GF/C) were obtained from Whatman.
Rate constants for binding and dissociation.
Analog structures are defined in Table 12.

rat NPC1L1 = rat NPC1L1 (Rattus norvegicus, UniProt Q6T3U3); assay: ^35S-2 competition binding, rat NPC1L1 transfected CHO cells; design: expressed in transfected cells; pCDNA3); conditions: 5 nM ^35S-2, 2 hours at 37° C.; read-out: Recombinant rat NPC1L1 Ki
Procedure: Rat NPC1L1 transfected CHO cells (˜500,000 cells/assay) were incubated with 5 nM ^35S-2 (˜1 million dpm/assay) for 2 hours at 37° C. in the absence or presence of increasing concentrations of EZE-glucuronide (compound 1), compounds 2, 3, 5, 6, or 8. Compound 8 is an analog of compound 2 wherein the hydroxyl group in the 3-hydroxylpropyl moiety of 2 is replaced with an oxo group.

[3] = molecular target: T3, mouse intestinal brush border membranes (Mus musculus, UniProt Q6T3U4); assay: Binding assay with mouse (wild type) brush border membrane vesicles
T3 construct: from tissue; host or cells: mouse small-intestinal mucosa (C57BL/6J; wild-type littermates in the knockout comparison), brush border membrane vesicles
Procedure: as §1
For rhesus brush border membranes vesicles, 56 μg protein/assay were incubated with 25 nM ^3H-EZE-glucuronide in the presence of increasing concentrations of EZE-glucuronide and 2. For rat brush border membranes vesicles, 150 μg protein/assay were incubated with 50 nM ^3H-EZE-glucuronide in the presence of increasing concentrations of EZE-glucuronide and 2. For mouse brush border membranes vesicles, 20 μg protein/assay were incubated with 3 nM ^35S-2 in the presence of increasing concentrations of EZE-glucuronide and 2.
Brush border membranes vesicles were prepared from intestinal tissues of wild type and NPC1L1 knockout (−/−) mice. 15, 30 and 60 μg protein/assay of brush border membranes vesicles were incubated with 4 nM ^35S-2 in buffer A for 3 hours at 37° C. in the presence and absence of 100 μM EZE-glucuronide.
For FIG. 14A, enterocyte brush border membranes were prepared from NPC1L1 deficient male mice and same sex wild-type littermates, and tested for binding of 1. […] Membranes from wild type mice are on the left and from NPC1L1 deficient mice on the right.

[4] = 0.03% sodium taurocholate and 0.05% digitonin, 1.25 mg protein/ml, 100 nM 1, read-out: Rat BBM Ki
[5] = native rat intestinal brush border membranes, read-out: Rat BBMV Ki
[6] = 3 nM ^35S-2, 20 μg protein/assay, read-out: inhibition constant Ki, Mouse
[7] = 50 nM ^3H-EZE-glucuronide, 150 μg protein/assay, read-out: inhibition constant Ki, Rat

SMILES: O=C(O)[C@H]1O[C@@H](Oc2ccc([C@@H]3[C@@H](CC[C@@H](O)c4ccc(F)cc4)C(=O)N3c3ccc(F)cc3)cc2)[C@H](O)[C@@H](O)[C@@H]1O [Compound 5]
Ki [1]: 120 nM
pKi [2, 4]: 5.55
pKi [2, 5]: 5.41
IC50 [2]: 3900 nM
pKi (rat NPC1L1): 5.24

SMILES: O=C(O)[C@H]1O[C@@H](Oc2ccc([C@@H]3[C@@H](CCCc4ccc(F)cc4)C(=O)N3c3ccc(F)cc3)cc2)[C@H](O)[C@@H](O)[C@@H]1O [Compound 3]
pKi [1]: 6.82
pKi [2, 4]: 5.80
pKi [2, 5]: 5.64
IC50 [2]: 2300 nM
pKi (rat NPC1L1): 5.62

SMILES: O=C(O)[C@H]1O[C@@H](Oc2ccc([C@@H]3[C@@H](CC[C@H](O)c4ccc(F)cc4)C(=O)N3c3ccc(F)cc3)cc2)[C@H](O)[C@@H](O)[C@@H]1O [Compound 1, Ezetimibe glucuronide]
pIC50 [1]: 7.39
pKd ([1]; KD at equilibrium by competition of unlabeled compound against 1, 0.5-1.25 mg/ml protein, 22-50 nM 1, more than 3 hours): 7.41
pKd ([1]; Kd (equilibrium saturation binding, Scatchard), ^3H-ezetimibe glucuronide, rhesus membranes, no detergent): 7.39
pKd ([1]; Kd predicted from rate constants (Kd=koff/kon), rhesus membranes): 7.49
Ki [1]: 15 nM
residence time ([1]; read-out: half-life for dissociation of the complex, rhesus/monkey complex): ~90 min
kon ([1]; read-out: rate constant for association kon): 3900 M⁻¹ s⁻¹
koff ([1]; read-out: rate constant for dissociation koff, rhesus membranes): 0.000123 s⁻¹
concentration of binding site ([1]; rhesus membranes): 5.5 pmol/mg membrane protein
rate constant for dissociation koff ([1]; rhesus membranes, listed as [^3H]ezetimibe glucuronide): 0.00012 s⁻¹
affinity for mouse membranes (in words) [3]: low affinity
pKi [3, 6]: 5.64
pKd ([3]; age-matched wild-type mice, 0.03% sodium taurocholate and 0.05% digitonin): 4.92
pIC50 ([3]; mouse, read-out: in vitro binding affinity (IC50)): 4.92
pKd ([3]; murine membranes, text of b482): 5.00
pKi ([3]; wild-type mice, 5 mg/ml protein, 500 nM 1, 0.03% taurocholate, 0.05% digitonin, read-out: Ki, competition of unlabeled ezetimibe glucuronide against 1): 4.92
rate constant for association kon ([2]; 25 nM 1, rat membranes, 25° C.): 5,540 M^−1 s^−1
kobs ([2]; 25 nM of 1 and 3 mg/ml protein at 25° C.): 0.004 s⁻¹
pKi [2, 7]: 6.28
pKd ([2]; 1.5 mg/ml protein, 50 nM 1, 1 hour, read-out: KD at equilibrium by competition of unlabeled compound against 1): 6.22
pKi [2, 4]: 6.41
Bmax ([2]; ^3H-EZE-glucuronide, rat BBMV): 20.7 pmol/mg protein
pKd ([2]; ^3H-ezetimibe glucuronide, rat membranes, no detergent, read-out: KD (equilibrium saturation binding, Scatchard)): 6.27
pKi [2, 5]: 6.22
IC50 [2]: 530 nM
rate constant for dissociation koff ([2]; rat membranes, dissociation initiated with 100 μM unlabeled ezetimibe glucuronide): 0.0024 s⁻¹
pKd ([2]; rat membranes, read-out: Kd predicted from rate constants (Kd=koff/kon)): 6.36
pIC50 ([2]; rat, read-out: in vitro binding affinity (IC50)): 6.27
residence time ([2]; read-out: half-life of dissociation): 4.7 min
kon ([2]; read-out: rate constant for association kon, 25 nM 1, rat membranes, 25° C.): 5500 M⁻¹ s⁻¹
kon ([2]; read-out: rate constant for association kon, rat brush border membranes): 5540 M⁻¹ s⁻¹
koff ([2]; read-out: rate constant for dissociation koff): 0.0024 s⁻¹
pKi (rat NPC1L1): 6.10

SMILES: O=C(O)C1OC(Oc2ccc(C3C(CCC(O)c4ccc(F)cc4)C(=O)N3c3ccc(F)cc3)cc2)C(O)C(O)C1O (single isomer, unassigned) [Compound 4]
Ki [1]: 22000 nM
pKi [2, 4]: 3.89
activity in vitro ([2]; in all species, Ki>100×KD for ezetimibe glucuronide): completely inactive
IC50 [2]: > 100000 nM
pKd ([2]; rat membrane binding assay, read-out: Kd for the rat target): < 4.00

SMILES: CS(=O)(=O)NCC#Cc1ccc(N2C(=O)[C@H](CC[C@H](O)c3ccc(F)cc3)[C@H]2c2ccc(O[C@@H]3O[C@H](C(=O)O)[C@@H](O)[C@H](O)[C@H]3O)cc2)cc1 [Compound 2, 4-[(2S,3R)-3-[(3S)-3 (4-fluorophenyl)-3-hydroxypropyl]-1-(4-{3-[(methylsulfonyl)amino]prop-1-yn-1-yl}phenyl)-4-oxoazetidin-2-yl]phenyl β-D-glucopyranosiduronic acid]
potency relative to ezetimibe glucuronide ([1]; rhesus membrane preparations): equipotent
affinity for mouse membranes (in words) [3]: enhanced affinity
pKi [3, 6]: 6.84
binding to wild type control membranes ([3]; 4 nM ^35S-2): detectable binding
pKd ([3]; control (wild type) mouse membranes, 4 nM ^35S-2, 3 hours at 37° C.): 6.81
pKi [2, 7]: 7.82
pKi [2, 5]: 7.82
potency relative to ezetimibe glucuronide ([2]; rat enterocyte brush border membrane preparations): 35 fold
pKi (rat NPC1L1): 7.92

The next lines start with the values.

Kd ([1]; KD (nM), Table 11, monkey, absence of detergents): 41 nM
pKd ([3]; Table 11, mouse, absence of detergents): 4.92
pKd ([2]; Table 11, rat, absence of detergents, read-out: KD): 6.27
SMILES: O=C1[C@H](CC[C@H](O)c2ccc(F)cc2)[C@@H](c2ccc(O)cc2)N1c1ccc(F)cc1 [ezetimibe]

pKi [1]: 5.48
pKi [2, 4]: 4.48
pKi [2, 5]: 4.15
IC50 [2]: 70000 nM
pKi (rat NPC1L1): 4.07
SMILES: O=C(CC[C@H]1C(=O)N(c2ccc(F)cc2)[C@@H]1c1ccc(O[C@@H]2O[C@H](C(=O)O)[C@@H](O)[C@H](O)[C@H]2O)cc1)c1ccc(F)cc1 [Compound 6]
